Patent publication EP1961762A1, “Inhibitors of protein phosphatase 1/GADD34, preparation and uses thereof” (Institut Gustave Roussy, priority 2007, dated 2008)
Peptide text beside a SMILES is read from it. * marks the point of attachment. Cbz = O=C(OCc1ccccc1)*; CH2F = FC*

How the values were obtained:
CT26 tumour cells = test: Anti-tumour vaccination with dying treated CT26 tumour cells, challenge with live tumour cells; format: in vivo, BALB/c mice; settings: for immunogenic cell death: PP1/GADD34 inhibitor alone
CT26 tumours [1] = test: Intratumoural treatment of established CT26 tumours, immunocompetent mice; settings: for therapeutic effect of single agent: single intratumoural injection, 14-day-old tumours
Description: (§1) All animals were maintained in specific pathogen-free conditions and all experiments followed the FELASA guidelines. […] Tumours were evaluated weekly, using a caliper. In a series of experiments, BALB/c (wild type or nu/nu) carrying palpable CT26 tumours (implanted 14 days before for wild type or 7 days before for nu/nu mice by injection of 10^6 tumour cells) received a single intratumoural injection of 100 µM PBS containing the same concentration of anti-cancer agents and PP1/GADD34 inhibitors as those used in vitro, as well as rCRT (15 µg).

CT26 tumours [2] = test: Intratumoural treatment of established CT26 tumours, nu/nu mice; settings: single intratumoural injection
Description: as §1

CRT = test: Fluorescence detection of cell surface CRT on CT26 cells; format: cell-based, murine
Description: CT26 cells were cultured at 37°C under 5% CO2 in RPMI 1640 medium supplemented with 10% FCS, penicillin, streptomycin, 1 mM pyruvate and 10 mM HEPES in the presence of doxorubicin (DX; 24 h, 25 µM), mitoxantrone (Mitox; 24h, 1 µM, Sigma), idarubicin (24h, 1 µM, Aventis, France), mitomycin C (30 µM, 48 h; Sanofi-Synthelabo, France), and/or zVAD-fmk (50 µM, 24 h; Bachem), tunicamycin (24h, 65 µM), thapsigargin (24h, 30µM), brefeldin A (24h, 50 µM, Sigma), etoposide (48h, 25µM, Tava classics), MG132 (48h, 10 µM), ALLN (48h, […]), betulinic acid (24h, 10 µM), Hoechst 33343 (24h, 0,2µM), camptothecine (24h, 15 µM), lactacystin (48h, 60 µM), BAY 11-8072 (24h, 30µM), staurosporine (24h, 1.5 µM), bafilomycin A1 (48h, 300 nM), arsenic trioxide (24h, 30µM), C2-ceramide (C2-C; 24h, 60 µM,), calyculin A (48h, 30nM), or tautomycin (48h, nM, Sigma) and/or salubrinal (48h, µM, Calbiochem).
CT26 cells (on a glass slide or in 12-well plates) were first washed with FACS buffer (1× PBS, 5% fetus bovine serum, and 0.1% sodium azide) and then incubated with rabbit anti-mouse CRT antibody (1:100, Stressgen) in FACS buffer at 4 °C for 30 min. Cells reacted with anti-rabbit IgG (H+L) Alexa fluor 488-conjugates (1:500) in FACS buffer at 4 °C for 30 min. After washing three times with FACS buffer, surface CRT was detected by cytofluorometric analysis on a FACS Vantage. In some experiments, cells were fixed with 4% paraformaldehyde, counterstained with Hoechst (2µM; Sigma), followed by fluorescence microscopic assessment with a Leica IRE2 microscope equipped with a DC300F camera.

CRT and/or ERp57 = test: Immunofluorescence staining of unfixed human tumour cell lines; format: cell-based; settings: variety of human tumour cell lines
HeLa, A549, HCT116 = test: CRT exposure on human tumour cell lines; format: cell-based
MCA205, B16F10, J558 = test: CRT exposure on murine tumour cell lines; format: cell-based
[3] = test system: murine CT26 colon cancer cells; test: Calreticulin exposure, immunofluorescence staining and cytofluorometric analysis; format: cell-based; settings: 2 hours
Description: CT26 cells were cultured for 24 hours in the presence of the indicated agents for 24hrs, as described in Materials and Methods, and then were stained with Annexin V-FITC and the vital dye DAPI. • Fig. 1B: Identification of immunogenic cell death inducers. CT26 cells cultured as in Fig.1A were injected into the left flank, followed by injection of life tumour cells in the right flank 8 days later. The percentage of tumour free mice was determined 120 days later as in Fig.1C. • Fig. 1C: Incidence of tumours after inoculation of dying cells. Day 1 was considered the day of inoculation of dying tumour cells, 1 week before challenge with […]. • Fig. 1S. Dissociation of CRT exposure and phosphatidyl serine exposure. • Fig. 1SA, Fig. 1SB: Kinetics of CRT exposure. […] Representative pictograms are shown in Fig.1SA and quantitative data are reported in Fig.1SB. • Fig. 1SC, Fig. 1SD: Kinetics of PS exposure and cell death. […] Note that the nuclei of untreated cells were visualized with Hoechst 33342 (blue), while those of doxorubicin-treated cells emit a red fluorescence (Fig.2D). […] The surface exposure of CRT was determined by immunoflurorescence cytometry while gating on viable (propidium iodine-negative) cells (inserts) and was correlated with the immunogenicity of cell death (as determined in Fig. 1). […]

[4] = test system: human HCT116 colon cancer cell; test: as above; format: cell-based; settings: 2 hours
[5] = dying CT26 cells treated with the agent injected into one flank, live tumour cells into the opposite flank 8 days later

## arsenic trioxide [arsenite]
CT26 tumour cells; mouse, in vivo
  immunogenic apoptosis / immunogenic cell death (protection against tumour growth): failed to induce immunogenic apoptosis

## CO[C@@]12[C@H](COC(N)=O)C3=C(C(=O)C(C)=C(N)C3=O)N1C[C@@H]1N[C@@H]12 [mitomycin C]
CT26 tumours [1]
  therapeutic effect of single agent: no major therapeutic effect
CT26 tumours [2]
  therapeutic effect of single agent: no major therapeutic effect
CT26 tumour cells; mouse, in vivo
  immunogenic apoptosis / immunogenic cell death (protection against tumour growth): failed to induce immunogenic apoptosis

## C/C1=C/C(=O)O[C@@H]2C[C@@H](CC[C@H](C)/C=C\C=C\CC1)O[C@@](O)([C@@H]1CSC(=O)N1)C2 [latrunculin A]
CRT; pre-incubation for 1 h with the inhibitor
  effect on CRT exposure induced by anthracyclins and PP1/GADD34 inhibitors: abolished

## CC[C@@]1(O)C(=O)OCc2c1cc1n(c2=O)Cc2cc3ccccc3nc2-1 [camptothecin]
CT26 tumour cells; [5]
  immunogenic apoptosis / immunogenic cell death (protection against tumour growth): failed to induce immunogenic apoptosis

## tunicamycin
CT26 tumour cells; [5]
  immunogenic apoptosis / immunogenic cell death (protection against tumour growth): failed to induce immunogenic apoptosis

## COc1cccc2c1C(=O)c1c(O)c3c(c(O)c1C2=O)C[C@@](O)(C(C)=O)C[C@@H]3O[C@H]1C[C@H](N)[C@H](O)[C@H](C)O1 [daunorubicin]
CRT and/or ERp57
  exposure of CRT and/or ERp57 on the cell surface: Very similar results

## COC(=O)C[C@H](NC(=O)[C@H](C)NC(=O)[C@@H](NC(=O)OCc1ccccc1)C(C)C)C(=O)CF [Z-VAD-fmk] (Cbz-Val-Ala-Asp(OMe)-CH2F)
CT26 tumour cells; Z-VAD-fmk combined with doxorubicin
  immunogenicity of doxorubicin-elicited cell death: reduces the immunogenicity

## C[C@H]1CCC/C=C/[C@@H]2C[C@H](O)C[C@H]2[C@H](O)/C=C/C(=O)O1 [brefeldin, brefeldin A]
CT26 tumour cells; [5]
  immunogenic apoptosis / immunogenic cell death (protection against tumour growth): failed to induce immunogenic apoptosis

## C/C=C(/C)C(=O)O[C@H]1C(C)=C2[C@H]([C@@H]1OC(=O)CCCCCCC)[C@@](C)(OC(C)=O)C[C@H](OC(=O)CCC)[C@@]1(O)[C@H]2OC(=O)[C@@]1(C)O [thapsigargin]
CT26 tumour cells; [5]
  immunogenic apoptosis / immunogenic cell death (protection against tumour growth): failed to induce immunogenic apoptosis

## CC(=O)[C@]1(O)Cc2c(O)c3c(c(O)c2[C@@H](O[C@H]2C[C@H](N)[C@H](O)[C@H](C)O2)C1)C(=O)c1ccccc1C3=O [idarubicin]
CRT and/or ERp57
  exposure of CRT and/or ERp57 on the cell surface: Very similar results
CT26 tumour cells; [5]
  immunogenic apoptosis / immunogenic cell death (protection against tumour growth): elicited immunogenic cell death

## COC[C@@H]([C@H](O)[C@H](O)C(=O)NCC[C@H](C)c1nc(/C=C/C[C@@H]2O[C@]3(C[C@@H](O)[C@@H]2C)O[C@H]([C@H](C[C@H](O)[C@H](C)[C@H](O)[C@H](C)/C=C(C)/C(C)=C/C=C/C(C)=C\C#N)OC)[C@H](OP(=O)(O)O)C3(C)C)co1)N(C)C [calyculin A]
CT26 tumour cells
  immunogenic cell death: not sufficient to induce immunogenic cell death
CT26 tumour cells; mouse, in vivo
  immunogenic potential of cells succumbing to etoposide: greatly enhanced
CRT; agent alone
  CRT exposure: efficiently induced
CRT; in combination with etoposide
  CRT exposure: greatly enhanced

## COc1cc([C@@H]2c3cc4c(cc3[C@@H](O[C@@H]3O[C@@H]5CO[C@@H](C)O[C@H]5[C@H](O)[C@H]3O)[C@H]3COC(=O)[C@H]23)OCO4)cc(OC)c1O [etoposide]
CT26 tumours [1]
  therapeutic effect of single agent: no major therapeutic effect
CT26 tumours [2]
  therapeutic effect of single agent: no major therapeutic effect
CT26 tumour cells; [5]
  immunogenic apoptosis / immunogenic cell death (protection against tumour growth): failed to induce immunogenic apoptosis
CT26 tumour cells; sham-coated cells
  immunogenicity of etoposide-treated cells: poorly immunogenic

## CCOc1ccc(-c2nc3ccc(-c4nc5ccc(N6CCN(C)CC6)cc5[nH]4)cc3[nH]2)cc1 [Hoechst 33342]
CT26 tumour cells; [5]
  immunogenic apoptosis / immunogenic cell death (protection against tumour growth): failed to induce immunogenic apoptosis

## O=C(/C=C/c1ccccc1)NC(NC(=S)Nc1cccc2cccnc12)C(Cl)(Cl)Cl (stereo not shown) [salubrinal]
CT26 tumours [1]; combined with etoposide or mitomycin C, intratumoural
  tumour response: stable disease or complete tumour regression
CT26 tumours [1]
  therapeutic effect of single agent: no major therapeutic effect
CT26 tumours [2]
  therapeutic effect of single agent: no major therapeutic effect
HeLa, A549, HCT116
  CRT exposure: induced CRT exposure
MCA205, B16F10, J558
  CRT exposure: induced CRT exposure
CT26 tumour cells
  immunogenic cell death: not sufficient to induce immunogenic cell death
CT26 tumour cells; in combination with etoposide (mitomycin C not shown), abrogated by knocking down CRT
  immunogenic potential of cells succumbing to etoposide: greatly enhanced
CRT; agent alone
  CRT exposure: efficiently induced
CRT; in combination with etoposide
  CRT exposure: greatly enhanced

## VKKKKIKREIKI-Ikaravafsekv [mutant control peptide]
[3]
  exposure of calreticulin: did not induce calreticulin exposure
[4]
  exposure of calreticulin: did not induce calreticulin exposure

## C2-ceramide [C2 ceramide]
CT26 tumour cells; [5]
  immunogenic apoptosis / immunogenic cell death (protection against tumour growth): failed to induce immunogenic apoptosis
